Data as given in US7998974B2, “Fused heterocyclic compounds and their use as sirtuin modulators” (Sirtris Pharmaceuticals, Inc., priority 2005, dated 2011).

Key:
[1] = target: T1, human SIRT3 (Homo sapiens, UniProt Q9NTG7); assay: Fluorescence polarization assay to identify modulators of SIRT3 activity; format: biochemical; conditions: for EC50: activation of SIRT3 (Table 5), read-out: ED50 (the source's name); for IC50: inhibition of SIRT3 (Table 6)
T1 sequence (Q9NTG7 102-399): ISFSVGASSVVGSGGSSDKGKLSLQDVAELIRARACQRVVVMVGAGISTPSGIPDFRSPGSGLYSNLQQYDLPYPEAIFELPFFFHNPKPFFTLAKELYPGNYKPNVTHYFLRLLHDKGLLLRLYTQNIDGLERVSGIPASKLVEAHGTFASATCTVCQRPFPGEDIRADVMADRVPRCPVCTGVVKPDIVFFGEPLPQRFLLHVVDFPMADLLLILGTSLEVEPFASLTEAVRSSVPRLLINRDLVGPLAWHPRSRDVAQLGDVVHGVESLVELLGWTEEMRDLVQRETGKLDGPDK
Description: A fluorescence polarization assay was used to identify modulators of SIRT3 activity. The same assay may be used to identify modulators of any sirtuin protein. The assay utilizes a peptide substrate based on a fragment of Histone H4, a known sirtuin deacetylation target. The substrate contains a peptide having 14 amino acid residues as follows: Biotin-GASSHSK(Ac)VLK(MR121) (SEQ ID NO: 3) wherein K(Ac) is an acetylated lysine residue. The peptide is labeled with the fluorophore MR121 (excitation 635 nm/emission 680 nm) at the C-terminus and biotin at the N-terminus.
The peptide substrate is exposed to a sirtuin protein in the presence of NAD^+ to allow deacetylation of the substrate and render it sensitive to cleavage by trypsin. Trypsin is then added and the reaction is carried to completion (i.e., the deacetylated substrate is cleaved) releasing the MR121 fragment. Streptavidin is then added to the reaction where it can bind both the uncleaved substrate (i.e., any remaining acetylated substrate) and the non-fluorescent portion of the cleaved peptide substrate (i.e., the biotin containing fragment). The fluorescence polarization signal observed for the full length peptide substrate bound to streptavidin is higher than the fluorescence polarization signal observed for the released MR121 C-terminal fragment. Therefore, the fluorescence polarization obtained is inversely proportional to the level of deacetylation (e.g., the signal is inversely proportional to the activity of the sirtuin protein). Results are read on a microplate fluorescence polarization reader (Molecular Devices Spectramax MD) with appropriate excitation and emission filters.
The fluorescence polarization assays may be conducted as follows: 0.5 μM peptide substrate and 50 μM βNAD^+ is incubated with 2 nM of SIRT3 for 60 minutes at 37° C. in a reaction buffer (25 mM Tris-acetate pH8, 137 mM Na—Ac, 2.7 mM K—Ac, 1 mM Mg—Ac, 0.1% Pluronic F127, 10 mM CaCl2, 1 mM TCEP, 0.025% BSA). Test compounds are solubilized in DMSO and are added to the reaction at 11 concentrations ranging from 0.7 μM to 100 μM. The SIRT3 protein used in the assays corresponded to amino acid residues 102-399 of human SIRT3 with an N-terminal His-tag. The protein was overexpressed in E. coli and purified on a nickel chelate column using standard techniques. After the 60 minute incubation with SIRT3, nicotinamide is added to the reaction to a final concentration of 3 mM to stop the deacetylation reaction and 0.5 μg/mL of trypsin is added to cleave the deacetylated substrate. The reaction is incubated for 30 minutes at 37° C. in the presence of 1 mM streptavidin. Fluorescent polarization is determined at excitation (650 nm) and emissions (680 nm) wavelengths. The level of activity of the sirtuin protein in the presence of the various concentrations of test compound are then determined and may be compared to the level of activity of the sirtuin protein in the absence of the test compound, and/or the level of activity of the sirtuin proteins in the negative control (e.g., level of inhibition) and positive control (e.g., level of activation) described below.
A control for activation of sirtuin activity is conducted using 0.5 μg/mL of sirtuin protein to reach baseline deacetylation of the substrate (e.g., to determine normalized sirtuin activity).

[2] = target: T2, SIRT1 (Homo sapiens, UniProt Q96EB6); assay: Fluorescence polarization or mass spectrometry based assay to identify modulators of SIRT1 activity; format: biochemical; conditions: for EC50: activation of SIRT1 (Table 3), read-out: ED50 (the source's name);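 as to all read-outs here: deacetylation of a fluorophore-tagged p53-derived acetyl peptide by SIRT1, detected as fluorescence polarization after trypsin cleavage and streptavidin binding, compounds tested at 11 doses from 0.7 to 100 µM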
T2 sequence (Q96EB6 1-747): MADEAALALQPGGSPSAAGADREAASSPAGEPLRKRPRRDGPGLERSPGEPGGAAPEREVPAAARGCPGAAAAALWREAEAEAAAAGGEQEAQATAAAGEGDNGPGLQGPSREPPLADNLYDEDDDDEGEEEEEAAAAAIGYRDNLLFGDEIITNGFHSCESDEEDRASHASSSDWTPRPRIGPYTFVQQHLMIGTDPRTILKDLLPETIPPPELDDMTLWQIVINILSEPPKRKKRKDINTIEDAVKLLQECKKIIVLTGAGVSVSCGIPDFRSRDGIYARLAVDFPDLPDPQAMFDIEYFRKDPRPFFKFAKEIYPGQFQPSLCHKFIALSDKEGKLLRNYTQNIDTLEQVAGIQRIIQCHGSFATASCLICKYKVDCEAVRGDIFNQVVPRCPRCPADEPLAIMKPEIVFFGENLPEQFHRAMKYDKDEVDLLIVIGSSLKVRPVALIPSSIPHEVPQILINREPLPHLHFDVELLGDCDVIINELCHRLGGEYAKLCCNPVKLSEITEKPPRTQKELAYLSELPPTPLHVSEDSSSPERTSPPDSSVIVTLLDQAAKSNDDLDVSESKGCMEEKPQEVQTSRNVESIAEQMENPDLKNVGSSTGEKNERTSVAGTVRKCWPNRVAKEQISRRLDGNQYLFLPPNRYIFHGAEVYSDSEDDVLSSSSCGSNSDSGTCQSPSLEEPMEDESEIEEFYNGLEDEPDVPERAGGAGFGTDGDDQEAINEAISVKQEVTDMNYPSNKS

| EC50 [1] | EC50 [2] | SMILES | other results |
| --- | --- | --- | --- |
| > 150 µM | > 150 µM | COc1ccc(-c2nc3c(C(=O)NC(CC(=O)O)C4CCCCC4)cccn3c2NC(C)(C)C)cc1[N+](=O)[O-] (stereo not drawn) [Compound 29] |  |
|  | 101 to 150 µM | CC(=O)Nc1ccc(-c2nc3c(C(=O)NC(C)C(=O)NCCCN4CCCC4=O)cccn3c2NCc2ccccc2)cc1 (stereo not drawn) [Compound 41] |  |
|  | 51 to 100 µM | N#CCCNC(=O)CNC(=O)c1cccn2c(NCC3CCCO3)c(-c3ccc(Cl)cc3)nc12 (stereo not drawn) [Compound 42] |  |
|  | 101 to 150 µM | COc1ccc(-c2nc3c(C(=O)NC(C)C(=O)NCCC#N)cccn3c2NCC2CCCO2)cc1 (stereo not drawn) [Compound 44] |  |
|  | 51 to 100 µM | COc1cccc(-c2nc3c(C(=O)NC(C)C(=O)NCCC#N)cccn3c2NC2CCCCC2)c1 (stereo not drawn) [Compound 46] |  |
|  | 51 to 100 µM | CC(=O)Nc1ccc(-c2nc3c(C(=O)NCC(=O)NCCC#N)cccn3c2NCc2ccccc2)cc1 [Compound 47] |  |
|  | 51 to 100 µM | COCCNC(=O)c1cccn2c(NCc3ccccc3)c(-c3ccc(NC(=O)N4CCOCC4)cc3)nc12 [Compound 49] |  |
|  | 51 to 100 µM | COCCNC(=O)c1cccn2c(NCc3ccccc3)c(-c3ccc(NC(=O)C4CC4)cc3)nc12 [Compound 51] |  |
|  | 101 to 150 µM | O=C(NCCN1CCNC1=O)c1cccn2c(NCc3ccccc3)c(-c3ccc(NC(=O)N4CCOCC4)cc3)nc12 [Compound 53] |  |
|  | > 150 µM | Cc1cc(C(=O)Nc2ccc(-c3nc4c(C(=O)NCCN5CCNC5=O)cccn4c3NCc3ccccc3)cc2)no1 [Compound 55] |  |
|  | < 50 µM | O=C(NCCCN1CCCC1=O)c1cccn2c(NC3CCCCC3)c(-c3ccc(NC(=O)N4CCOCC4)cc3)nc12 [Compound 58] |  |
|  | 101 to 150 µM | O=C(Nc1ccc(-c2nc3c(C(=O)NCCCN4CCCC4=O)cccn3c2NC2CCCCC2)cc1)c1ccco1 [Compound 59] |  |
|  | 51 to 100 µM | O=C(NCCCN1CCCC1=O)c1cccn2c(NC3CCCCC3)c(-c3ccc(NC(=O)C4CC4)cc3)nc12 [Compound 60] |  |
|  | > 150 µM | CCCCNc1c(-c2ccc(NC(=O)c3ccc(Cl)nc3)cc2)nc2c(C(=O)NCCCN3CCCC3=O)cccn12 [Compound 61] |  |
| > 150 µM |  | COc1ccc(-c2nc3c(C(=O)NC(CC(=O)O)c4cccc(C)c4)cccn3c2Nc2c(C)cccc2C)cc1[N+](=O)[O-] (stereo not drawn) [Compound 67] |  |
| 51 to 100 µM |  | COc1cccc(-c2nc3c(C(=O)NC(CC(=O)O)C4CCCCC4)cccn3c2NCc2ccccc2)c1 (stereo not drawn) [Compound 69] |  |
| > 150 µM |  | Cc1cccc(C)c1Nc1c(-c2ccc(C#N)cc2)nc2c(C(=O)NC(CC(=O)O)C3CCCCC3)cccn12 (stereo not drawn) [Compound 70] |  |
| 51 to 100 µM |  | CCCCNc1c(-c2ccc(F)cc2)nc2c(C(=O)NC(CC(=O)O)c3cccc([N+](=O)[O-])c3)cccn12 (stereo not drawn) [Compound 71] |  |
| 51 to 100 µM |  | CCCCNc1c(-c2ccc(C#N)cc2)nc2c(C(=O)NC(CC(=O)O)c3cccc([N+](=O)[O-])c3)cccn12 (stereo not drawn) [Compound 72] |  |
| 51 to 100 µM |  | COc1ccc(-c2nc3c(C(=O)NC(CC(=O)O)c4cccc([N+](=O)[O-])c4)cccn3c2NCc2ccccc2)cc1[N+](=O)[O-] (stereo not drawn) [Compound 73] |  |
| > 150 µM |  | Cc1cccc(C)c1Nc1c(-c2ccc(C#N)cc2)nc2c(C(=O)NC(CC(=O)O)c3cccc([N+](=O)[O-])c3)cccn12 (stereo not drawn) [Compound 74] |  |
| < 50 µM |  | COc1ccc(-c2nc3c(C(=O)NC(C)C(=O)O)cccn3c2NCc2ccccc2)cc1[N+](=O)[O-] (stereo not drawn) [Compound 76] |  |
| 101 to 150 µM |  | CC(C)(C)Nc1c(-c2ccc(F)cc2)nc2c(C(=O)NC(CC(=O)O)C3CCCCC3)cccn12 (stereo not drawn) [Compound 78] |  |
| 51 to 100 µM |  | O=C(O)CC(NC(=O)c1cccn2c(NCc3ccccc3)c(-c3ccc(F)cc3)nc12)C1CCCCC1 (stereo not drawn) [Compound 79] |  |
| 51 to 100 µM |  | COc1ccc(-c2nc3cc(C(=O)NC(CC(=O)O)C4CCCCC4)ccn3c2NC2CCCCC2)cc1OC (stereo not drawn) [Compound 80] |  |
| 51 to 100 µM |  | Cc1ccc(C(CC(=O)O)NC(=O)c2ccn3c(NC4CCCCC4)c(-c4ccc(C#N)cc4)nc3c2)cc1 (stereo not drawn) [Compound 81] |  |

Second part, the molecule before the results:

| SMILES | EC50 [1] | EC50 [2] | other results |
| --- | --- | --- | --- |
| Cc1csc(NC(=O)CSCC(=O)O)c1-c1nc2ccccc2s1 [Compound 5] | 101 to 150 µM | < 50 µM |  |
| Nc1nc2ccc(-c3nc4ccccc4[nH]3)cc2s1 [Compound 14] | 101 to 150 µM | 101 to 150 µM |  |
| Cc1nn(C)c(Cl)c1-c1nc2c(C(=O)NC(C)C(=O)NCCC#N)cccn2c1NCc1ccccc1 (stereo not drawn) [Compound 48] |  | 101 to 150 µM |  |
| COCCNC(=O)c1cccn2c(NCc3ccccc3)c(-c3ccc(NC(=O)c4ccco4)cc3)nc12 [Compound 50] |  | > 150 µM |  |
| CC(=O)NCCNC(=O)c1cccn2c(NCc3ccccc3)c(-c3ccc(NC(=O)c4ccco4)cc3)nc12 [Compound 52] |  | 101 to 150 µM |  |
| O=C(Nc1ccc(-c2nc3c(C(=O)NCCN4CCNC4=O)cccn3c2NCc2ccccc2)cc1)c1ccco1 [Compound 54] |  | > 150 µM |  |
| CCCCNc1c(-c2ccc(NC(=O)CC(C)C)cc2)nc2c(C(=O)NCCN3CCNC3=O)cccn12 [Compound 56] |  | > 150 µM |  |
| CC(C)CC(=O)Nc1ccc(-c2nc3c(C(=O)NCCN4CCNC4=O)cccn3c2NC(C)(C)C)cc1 [Compound 57] |  | > 150 µM |  |
| COc1ccc2c(c1)C(=O)C(c1nc3ccccc3s1)C2=O (stereo not drawn) [Compound 62] |  | < 50 µM |  |
| CN(C)/C=C(\C#N)c1nc2ccccc2[nH]1 [Compound 64] |  | 51 to 100 µM |  |
| O=C(O)CCC(=O)Nc1cccc(-c2nc3cc4ccccc4cc3[nH]2)c1 [Compound 65] |  | > 150 µM |  |
| Cc1nc2cc3nc4c5cccc6cccc(c(=O)n4c3cc2[nH]1)c65 [Compound 66] |  | 101 to 150 µM |  |
| CCCCNc1c(-c2ccc(OC)c([N+](=O)[O-])c2)nc2c(C(=O)NC(C)C(=O)O)cccn12 (stereo not drawn) [Compound 75] | 51 to 100 µM |  |  |
| Nc1ccc(-c2nc3ccc(-c4nc5ccc(N)cc5[nH]4)cc3[nH]2)cc1 [Compound 83] | > 150 µM |  |  |
| COC(=O)CC(=O)Nc1ccccc1-c1nc2ccc(C(=O)NCc3ccc4c(c3)OCO4)cn2c1NC1CCCCC1 [Compound 84] |  |  | IC50 ([2]; inhibition of SIRT1 (Table 4)): < 50 µM |
| Nc1ccc(C(=O)Nc2nc3cc4sc(NC(=O)c5ccc(N)cc5)nc4cc3s2)cc1 [Compound 86] |  |  | IC50 [1]: 51 to 100 µM |
| Cc1ccccc1C(=O)N1CCN(C(=O)c2cccn3c(NCc4ccccc4)c(C(C)C)nc23)CC1 [Compound 87] |  |  | IC50 [1]: 101 to 150 µM |
| CN(C)c1ccc(-c2nc3ccc(C(=O)NCC(=O)NCC4CC4)cn3c2NC2CCCCC2)cc1 [Compound 88] |  |  | IC50 [1]: < 50 µM |
| Cc1cc(C(=O)Nc2ccc(-c3nc4ccc(C(=O)NCCCN5CCCC5=O)cn4c3NC3CCCCC3)cc2)no1 [Compound 89] |  |  | IC50 [1]: 101 to 150 µM |
